This is an account of results in paper PMC3130629 (Free radical biology & medicine, 2011).

Data set [1] deals with XO bound to BAEC GAGs (endothelial cell-bound XO). The experiment in a line: Inhibition of endothelial cell-bound XO, uric acid formation. The following applies: for Inhibition of endothelial cell GAG-bound XO (uric acid formation): even at concentrations above those tolerated clinically (e.g. 200 μM). The data set is classed as cell-based, bovine.
Data set [2] shares this test system. As to the kind of experiment: Inhibition of endothelial cell-bound XO, extracellular O2•- by EPR with PPH. The data set is classed as cell-based, bovine. The following applies: xanthine 100 μM, 37°C.
Another data set concerns xanthine oxidase (XO). The experiment in a line: O2•- formation from reaction of inhibitor with purified XO. The data set is classed as biochemical. As to conditions: XO 10 mU/ml; allopurinol 50 μM, febuxostat 100 nM; cytochrome c reduction.
The target in the next data set is XO. The following applies: read-out: Ki for XO; pH 8.5; cited from earlier work.
For data set [3] the following is noted: cited from earlier work.
In data set [4] the target is xanthine oxidase (XO), free in solution (Bos taurus, UniProt P80457). The experiment in a line: Inhibition of XO free in solution, uric acid formation. It counts as biochemical. The following applies: soluble and HS6B-XO, 0.96 and […] vs ref 16.
The target in data set [5] is HS6B-XO (GAG-immobilized xanthine oxidase) (Bos taurus, UniProt P80457).
The target of the next data set is soluble XO. As to conditions: read-out: Ki, soluble XO; cited from earlier work.
The next data set has as its target GAG-bound XOR. The following applies: read-out: Ki, GAG-bound XOR; cited from earlier work.

xanthine oxidase (XO), free in solution, sequence (P80457 whole entry): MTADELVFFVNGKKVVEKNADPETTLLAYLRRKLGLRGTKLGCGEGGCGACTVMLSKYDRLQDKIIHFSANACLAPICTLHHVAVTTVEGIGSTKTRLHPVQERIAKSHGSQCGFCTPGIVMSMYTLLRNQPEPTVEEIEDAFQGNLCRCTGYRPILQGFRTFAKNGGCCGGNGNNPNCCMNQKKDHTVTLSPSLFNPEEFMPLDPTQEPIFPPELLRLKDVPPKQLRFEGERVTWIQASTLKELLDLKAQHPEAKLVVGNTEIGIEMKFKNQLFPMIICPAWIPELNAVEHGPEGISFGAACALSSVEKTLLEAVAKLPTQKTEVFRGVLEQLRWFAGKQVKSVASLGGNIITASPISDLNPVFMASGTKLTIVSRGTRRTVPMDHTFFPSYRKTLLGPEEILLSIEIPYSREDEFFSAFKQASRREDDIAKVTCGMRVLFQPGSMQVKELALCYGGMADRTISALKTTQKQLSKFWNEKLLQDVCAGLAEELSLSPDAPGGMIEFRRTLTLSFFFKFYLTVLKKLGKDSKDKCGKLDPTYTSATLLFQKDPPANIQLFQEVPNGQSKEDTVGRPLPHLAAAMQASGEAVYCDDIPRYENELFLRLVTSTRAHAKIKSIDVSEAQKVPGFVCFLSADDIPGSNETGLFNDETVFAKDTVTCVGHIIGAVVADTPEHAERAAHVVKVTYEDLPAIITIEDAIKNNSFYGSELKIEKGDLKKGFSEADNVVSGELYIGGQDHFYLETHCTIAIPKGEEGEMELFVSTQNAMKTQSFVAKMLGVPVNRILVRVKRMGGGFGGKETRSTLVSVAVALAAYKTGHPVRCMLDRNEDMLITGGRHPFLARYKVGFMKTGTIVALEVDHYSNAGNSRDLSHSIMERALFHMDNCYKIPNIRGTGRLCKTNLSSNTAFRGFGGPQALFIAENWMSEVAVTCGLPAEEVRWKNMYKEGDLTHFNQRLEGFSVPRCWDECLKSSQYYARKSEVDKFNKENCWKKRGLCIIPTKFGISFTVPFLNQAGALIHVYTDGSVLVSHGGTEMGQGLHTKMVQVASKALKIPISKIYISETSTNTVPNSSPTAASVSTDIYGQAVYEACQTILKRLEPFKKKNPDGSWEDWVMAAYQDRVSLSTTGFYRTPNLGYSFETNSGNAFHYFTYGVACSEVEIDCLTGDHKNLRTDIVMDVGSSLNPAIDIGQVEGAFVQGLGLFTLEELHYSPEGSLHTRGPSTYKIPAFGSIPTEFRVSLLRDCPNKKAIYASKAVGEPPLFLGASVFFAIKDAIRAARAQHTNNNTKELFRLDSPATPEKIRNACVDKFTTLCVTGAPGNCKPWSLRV
HS6B-XO (GAG-immobilized xanthine oxidase), sequence (P80457 whole entry): as above

Regarding `Oc1ncnc2[nH]ncc12` [allopurinol], the “Inhibition of endothelial cell GAG-bound XO (uric acid formation)” value in data set [1] is “no more than 80%”. Moreover, the “Reduction of cell-bound O2•- radical formation (EPR, PP• radical)” value in [2] (200 μM) worked out at 80%. The “O2•- formation on exposure of purified XO to the inhibitor” value in the data set on xanthine oxidase (XO) is “significant O2 ^•- formation”. Besides, the Ki (usually the equilibrium dissociation constant of an inhibitor or competing ligand from its target) at XO is 700 nM. Further, the Concentrations seen clinically in data set [3] was 20 to 90 µM.

`Cc1nc(-c2ccc(OCC(C)C)c(C#N)c2)sc1C(=O)O` [febuxostat]: in data set [4], the “Ki (pH 7.4) higher than previously reported Ki (pH 8.5)” value is on record as ~ 8 fold. Moreover, in [1] (25 nM febuxostat, xanthine 100 μM, 1 h), the “Inhibition of uric acid formation from endothelial cell-bound XO” value was “completely inhibited”. Moreover, the “Reduction of cell-bound O2•- production (EPR, PP• radical)” value in data set [2] (50 nM) amounted to 100%. Further, in the data set on xanthine oxidase (XO), the “O2•- formation on exposure of purified XO to the inhibitor” value is reported as “no detectable O2 ^•-”. Besides, the “Concentration giving complete inhibition of uric acid and O2•- production from HS6B-XO” value in data set [5] was not above 50 nM. Further, the inhibitory constant (Ki) on XO was 0.12 nM. In data set [3] (reported), the maximum concentration (Cmax) (commonly the peak of the concentration-time curve) was 15 µM.

Turning to `O=c1[nH]c(=O)c2c[nH]nc2[nH]1` [oxypurinol], the “Inhibition of endothelial cell GAG-bound XO (uric acid formation)” value in [1] is listed as “no more than 80%”. In addition, the Ki was 230 nM on soluble XO and 405 nM on GAG-bound XOR. Besides, the Concentrations seen clinically in data set [3] was 20 to 90 µM.
